{"source": "patent US8445502B2", "about": "“Pharmaceutical formulations comprising salts of a protein kinase inhibitor and methods of using same” (Astex Pharmaceuticals, Inc., priority 2007, dated 2013)", "key": {"[1]": {"experiment": "Solubility of MP470 and its salts (Table 2)", "format": "physicochemical"}, "SB-CL2 melanoma cells": {"tested_on": "SB-CL2 melanoma cells", "experiment": "SB-CL2 melanoma tumor model in athymic nude mice", "format": "in vivo", "conditions": "IP 50 & 75 mg/kg, qd × 5, TV-10", "description": "(§1) MP470 and MP470 HCl were tested against different tumor types in athymic nude mice as summarized below (Table 8). Various formulations and routes were evaluated. HT-29 colorectal cancer cells and SB-CL2 melanoma cells were implanted subcutaneously, while A549 lung cancer cells, MiaPaCa-2 pancreatic cancer cells, TT medullary thyroid cancer cells, and OVCAR-3 ovarian cancer cells were implanted […] in the hind flank of mice. All animals were allowed to develop medium-sized (80-125 mg) tumors, before initiation of dosing. Tumor volume and mouse bodyweight were followed over the course of the study."}, "[2]": {"experiment": "Single-dose pharmacokinetics in rat (Table 10)", "format": "in vivo", "source_text": "MP470 free base has a relative bioavailability of […] as compared to the HCl salt."}, "A549 lung cancer cells": {"tested_on": "A549 lung cancer cells", "format": "in vivo", "conditions": "for tumor growth rate: qd×5×3 wk (vehicle 43)", "description": "as §1\nA549 Lung Cancer Model—In 40 nude mice implanted intradermally with A549 lung cancer cells, animals were dosed with vehicle orally, MP470 in 100% corn oil orally, or 5-FU in sterile saline IP. […] […] While MP470 reduced tumor growth rates, treatment of these cells with 5-FU reduced the overall tumor growth rate per day further to 19.5 mm3/d on Day 26.\nTo determine whether MP470.HCl in combination with carboplatin increased the anti-tumor activity in xenograft tumors growing in vivo, the agents were administered alone and in combination and tumor growth was monitored. MP470.HCl (50 mg/kg) was combined with carboplatin (30 mg/kg) alone or carboplatin with taxol (20 mg/kg)."}, "[3]": {"tested_on": "γ-H2AX levels in OVCAR-3 (ovarian carcinoma) cells", "experiment": "DNA damage by γ-H2AX levels", "format": "cell-based", "conditions": "single agent 10 μM; control 0.5% DMSO medium", "description": "OVCAR-3 (ovarian carcinoma) cells were treated with MP470 (10 μM), MP470.HCl (10 μM), and/or topotecan (10 μM)."}, "[4]": {"experiment": "Acute intravenous toxicity in rat, second study", "format": "in vivo", "conditions": "single intravenous dose", "description": "In the second IV administration study of MP470 free base, six groups of 6 rats were to be exposed to either vehicle alone or MP470 at 0.625, 1.25, 2.5, 5, or 10 mg/kg. Dosing was administered via a tail vein over approximately 30 minutes. Animals in each group were given a single intravenous dose of the test substance. Animals in the lowest dose group were dosed first, followed by at least a 10 minute period to observe any effects. If no effects were observed or if effects were observed but deemed acceptable the dosing went to the next highest dose using the same progression criteria. Progression was stopped when unacceptable, adverse effects (e.g., severe convulsions or death) occurred or when the highest dose was successfully administered without adverse effects. A control group (formulation vehicle: TV-13) was included for relevant comparison. […] Dosing occurred on Day 0 and termination on Day 4. On Day 4, the animals were sacrificed and subjected to complete, documented, gross necropsy.\nMortality (50%) occurred in the high dose group (10 mg/kg). […] Under the conditions of this study, a maximum tolerated acute dose in the rat for MP470 was determined to be 5 mg/kg. However, a ‘no observable adverse effect level’ could not be determined due to adverse observations apparently associated with vehicle administration."}, "[5]": {"tested_on": "Rad51 in A549 non-small cell lung cancer cells", "experiment": "Rad51 protein level by Western blot in cells", "format": "cell-based", "conditions": "MP470.HCl alone, 24 hrs", "description": "Rad51 protein levels were also determined in A549 non-small cell lung cancer cells using combinations with DNA damaging agents. Cells were treated for 24 hrs with 6.1 μM (IC30 of carboplatin alone) carboplatin in combination with 0.71 μM or 3.82 μM MP470.HCl. Protein lysates were isolated from treated and non-treated cells, separated by SDS-PAGE, and transferred to nitrocellulose. […] The increase in Rad51 due to carboplatin treatment was reduced by 26% when treated in combination with 0.71 μM MP470.HCl and by 42% with 3.82 μM MP470.HCl"}, "[6]": {"tested_on": "Erk phosphorylation in Panc-1 Pancreas Cancer Cells", "experiment": "Erk phosphorylation after PMA stimulation", "format": "cell-based", "conditions": "PMA-stimulated cells; compared to PMA alone and PD98059; hydrochloride", "source_text": "FIG. 11 illustrates the Erk phosphorylation changes in Panc-1 Pancreas Cancer Cells after MP470 hydrochloride exposure\nRegulation of Erk phosphorolation—MP470.HCl activity was screened against potential biomarkers, including proteins, such as Erk that are activated downstream of c-Kit. Erk was selected from potential candidate markers to evaluate changes in protein phosphorylation in treated cancer cell lines because MP470 appeared to regulate this event. […] Exposure to PMA is known to rapidly stimulate Erk phosphorylation and was used as a positive control."}, "[7]": {"conditions": "50 mM PBS buffer, pH 7, aqueous buffer, 50 mM PBS buffer, pH 7, read-out: Solubility (50 mM PBS buffer, pH 7, Exp. 15)"}, "[8]": {"conditions": "water, read-out: Solubility in water"}, "[9]": {"conditions": "Rat, 100 mg/kg PO, Dry Blend, hydrochloride, 100 mg/kg"}}, "note": "“Also recorded” adds a separate entry of the source. Like-named read-outs stand apart in the source and are kept apart here.", "data": [{"smiles": "S=C(NCc1ccc2c(c1)OCO2)N1CCN(c2ncnc3c2oc2ccccc23)CC1", "note": "[MP470, 4-[1]benzofuro[3,2-d]pyrimidin-4-yl-N-(1,3-benzodioxol-5-ylmethyl)piperazine-1-carbothioamide]", "values": [{"measurement": "Solubility", "setting": "[1]; [7]", "result": 1.22, "unit": "µg/mL"}, {"measurement": "Solubility", "setting": "[1]; [8]", "result": 4.94, "unit": "µg/mL"}, {"measurement": "Outcome: tumor growth", "setting": "SB-CL2 melanoma cells", "result": "Dose dependency"}, {"measurement": "Cmax", "setting": "[2]; Rat, 100 mg/kg PO, Dry Blend", "result": 710, "unit": "ng/mL"}, {"measurement": "Tmax", "setting": "[2]; Rat, 100 mg/kg PO, Dry Blend", "result": 11.3, "unit": "h"}, {"measurement": "AUC0→last", "setting": "[2]; Rat, 100 mg/kg PO, Dry Blend, 100 mg/kg", "result": 7910, "unit": "ng·h/mL"}, {"measurement": "AUC0→last", "setting": "[2]; Rat, 100 mg/kg PO, Dry Blend, listed as MP470 (free base), 100 mg/kg", "result": 7900, "unit": "ng·h/mL"}, {"measurement": "bioavailability", "setting": "[2]; in vivo, Rat, 100 mg/kg oral, dry powder blend, read-out: relative bioavailability as compared to the HCl salt", "result": 8, "unit": "%"}, {"measurement": "Outcome: tumor growth", "setting": "A549 lung cancer cells; A549 lung, MP470 PO 50, 100, 200 mg/kg, (qd × 5) × 2 w, corn oil", "result": "no apparent dose relationship"}, {"measurement": "tumor growth rate", "setting": "A549 lung cancer cells; Day 26, 50 mg/kg oral in corn oil", "result": 28.3, "unit": "mm3/d"}, {"measurement": "tumor growth rate", "setting": "A549 lung cancer cells; Day 26, 100 mg/kg oral in corn oil", "result": 34.9, "unit": "mm3/d"}, {"measurement": "tumor growth rate", "setting": "A549 lung cancer cells; Day 26, 150 mg/kg oral in corn oil", "result": 28.1, "unit": "mm3/d"}, {"measurement": "Increase in DNA damage (γ-H2AX) over control", "setting": "[3]", "result": "did not cause DNA damage"}, {"measurement": "maximum tolerated acute dose", "setting": "[4]", "result": 5, "unit": "mg/kg"}]}, {"smiles": "Cl.S=C(NCc1ccc2c(c1)OCO2)N1CCN(c2ncnc3c2oc2ccccc23)CC1", "note": "[MP470.HCl, 4-[1]benzofuro[3,2-d]pyrimidin-4-yl-N-(1,3-benzodioxol-5-ylmethyl)piperazine-1-carbothioamide hydrochloride]", "values": [{"measurement": "Rad51 expression", "setting": "[5]", "result": "did not alter the expression of Rad51"}, {"measurement": "Solubility", "setting": "[1]; [7]", "result": 3.28, "unit": "µg/mL"}, {"measurement": "Solubility", "setting": "[1]; [8]", "result": 31.1, "unit": "µg/mL"}, {"measurement": "AUC0→last", "setting": "[2]; Rat, 3 mg/kg IV bolus, TV-10", "result": 18810, "unit": "ng·h/mL"}, {"measurement": "Cmax", "setting": "[2]; Rat, 3 mg/kg IV bolus, TV-10", "result": 8530, "unit": "ng/mL"}, {"measurement": "Tmax", "setting": "[2]; Rat, 3 mg/kg IV bolus, TV-10", "result": 0.02, "unit": "h"}, {"measurement": "AUC0→last", "setting": "[2]; Rat, 100 mg/kg PO, Corn oil", "result": 73350, "unit": "ng·h/mL"}, {"measurement": "Cmax", "setting": "[2]; Rat, 100 mg/kg PO, Corn oil", "result": 5270, "unit": "ng/mL"}, {"measurement": "Tmax", "setting": "[2]; Rat, 100 mg/kg PO, Corn oil", "result": 4.0, "unit": "h"}, {"measurement": "Cmax", "setting": "[2]; Rat, 100 mg/kg PO, Dry Blend", "result": 7190, "unit": "ng/mL"}, {"measurement": "Tmax", "setting": "[2]; Rat, 100 mg/kg PO, Dry Blend", "result": 9.5, "unit": "h"}, {"measurement": "AUC0→last", "setting": "[2]; [9]", "result": 94310, "unit": "ng·h/mL"}, {"measurement": "AUC0→last (μg · h/mL)", "setting": "[2]; [9]", "result": "about 94 μg · h/mL"}, {"measurement": "Tmax", "setting": "[2]; Rat, 100 mg/kg orally, range over vehicles", "result": "4.0 to 9.5", "unit": "h"}, {"measurement": "Cmax", "setting": "[2]; in vivo, po, Rat, 100 mg/kg orally, range over vehicles, read-out: Cmax", "result": "4600 to 7200", "unit": "ng/mL"}, {"measurement": "t½β", "setting": "[2]; rat, in vivo, iv, 3 mg/kg", "result": 0.36, "unit": "h"}, {"measurement": "Outcome: tumor growth", "setting": "A549 lung cancer cells; A459 lung cancer, MP470.HCl PO 50 mg/kg, qd × 21, corn oil, hydrochloride, 50 mg/kg", "result": "Dose dependency"}, {"measurement": "Increase in DNA damage (γ-H2AX) over control", "setting": "[3]", "result": "did not cause DNA damage"}, {"measurement": "level of Erk phosphorylation (P-Erk)", "setting": "[6]", "result": "reduced the level of Erk phosphorylation; also recorded: reduced the level of P-Erk below that of PD98059"}]}]}
